Earlier results, collected in publication PMC6985722 (Antimicrobial Agents and Chemotherapy, 2020).

Conditions: preclinical evaluations, including juvenile toxicology studies; cited from earlier work

**Q.** Which Safety profile does the source give for NCc1ccc2c(c1)nc(CN1C(=O)C3(CC3)c3ccc(F)cc31)n2CCCC(F)(F)F [RV521] here?
**A.** Its Safety profile is “good safety profile”.
